Literature values in paper PMC10574185, “Encapsulation and Biological Activity of Hesperetin Derivatives with HP-β-CD” (Molecules, 2023).
≈ marks a conversion by molar mass, not a printed value.

How the values were obtained:
Bacillus cereus = system: Bacillus cereus; design: method as in PMID 36009336; details: cited from earlier work
Staphylococcus aureus = system: Staphylococcus aureus; design: method as in PMID 36009336; details: cited from earlier work
prostate cancer cells = details: cited from earlier work
[1] = pH 6.5; cited from earlier work
Escherichia coli = system: Escherichia coli; design: method as in PMID 36009336; details: cited from earlier work

Question: Which results are given for `COc1ccc(C2CC(=O)c3c(O)cc(O)cc3O2)cc1O` (stereo not drawn) [Hesperetin, 3′,5,7-Trihydroxy-4′-methoxyflavanone]?
Answer: MIC (Bacillus cereus): 250 µg/mL (≈ 827 µM); MIC (Staphylococcus aureus): 125 µg/mL (≈ 414 µM); decrease in the cytotoxicity of cabazitaxel (prostate cancer cells): 13.1 fold; decrease in the cytotoxicity of docetaxel (prostate cancer cells): 9.8 fold; increase of hesperetin solubility with HP-β-CD [1]: 164 times; MIC (Escherichia coli): 500 µg/mL (≈ 1650 µM)
